Where two headings read alike, the source gives them in different places.
Experiments:
[1] = biological target: T1, interaction of AKAP-Lbc/DHPH and RhoA (Homo sapiens, UniProt P61586); assay: Homogeneous time-resolved fluorescence (HTRF) assay; format: binding; settings: for inhibitory effect on the AKAP-Lbc/DHPH-RhoA interaction: result in words
T1 construct: His6-AKAP-Lbc/DHPH (aa 1972–2342 of human AKAP-Lbc; NP_006729.4); made in house
Excerpt: Fig 2 The small molecule Scaff10-8 inhibits the interaction of the DH domain of AKAP-Lbc and RhoA. (A). Principle of homogenous time-resolved fluorescence (HTRF) assay. Recombinant His-AKAP-Lbc/DHPH and GST-RhoA were generated. The tags are recognized by specific antibodies coupled to fluorescent dyes. When the two proteins interact, donor and acceptor dyes of the antibodies are in close proximity, energy transfer occurs upon excitation at 320 nm and a FRET signal is detected (665 nm). If a compound disrupts the interaction of the DHPH domain and RhoA, the proximity of the fluorescent moieties remains insufficient for a FRET signal to occur. […] As expected, excess untagged Rho decreases the binding between GST-RhoA and His-AKAP-Lbc/DHPH in a dose-dependent manner (lower left panel). […] (C) The influence of Scaff10-8 on the interaction of RhoA with the recombinant DH domain of AKAP-Lbc in the absence of the PH domain was determined by Alpha screen. […] The IC50 value is indicated.
The assay was essentially carried out as described. Scaff10 derivatives were added to His6-AKAP-Lbc/DHPH protein (250 nM final concentration) in HTRF buffer (PBS; 4 mM MgCl2; 0.05% Tween 20) in 384 well plates (Proxiplate-384 Plus, white, #6008289; Perkin Elmer LAS, Rodgau, Germany). Concentrations of Scaff10 derivatives ranged between 1.56–200 μM (2% DMSO final concentration); HTRF buffer with 2% DMSO served as a control. GST-RhoA (30 nM final concentration) in HTRF buffer and anti-GST antibody coupled to terbium (donor) and anti-His6-tag antibody coupled to XL665 (acceptor) were added to all wells (final antibody concentration: 2 μg/ml). After 1 h incubation at room temperature in the dark, FRET signals were recorded at 620 and 665 nm using a Genios Pro plate reader (Tecan Austria GmbH, Grödig, AT) and the ratios of […] to 620 nm were calculated. Wells containing no compound were set to 100% interaction of AKAP-Lbc/DHPH with RhoA, wells containing GST-RhoA only (without His6-AKAP-Lbc/DHPH) were set to 0% interaction. To exclude any interference of the tags and/or antibodies with Scaff10 derivatives, a His6-GST fusion protein replaced the two tagged proteins in a control assay. Wells containing His6-GST fusion protein were set to 100% interaction of His6-GST, wells containing no fusion protein were set to 0% interaction.

Nephelometric solubility = format: physicochemical; settings: maximal solubility in DMEM + 10 % FCS
Description: Solubility of Scaff10 derivatives was assessed nephelometrically. Scaff10 derivatives are moderately to poorly soluble in aqueous solutions due to their large number of aromatic rings having lipophilic character. Details about NMR, LC/MS and HPLC characterization steps are given in the Supplemental Information.
Suppl. Tab. 3: Overview of all 55 Scaff10 derivatives.Structures labeld with 1 were commercially obtained. MW = molecular weight. logP = calculated partition coefficient (using […]
Solubility was assessed nephelometrically in DMEM + 10 % FCS + Scaff10 derivative with either 0.3 or 2 % DMSO
final concentration; values in µM indicate maximal solubility of the compound under the respective condition. Yield in % indicates total yield of the last step of chemical synthesis
for each of Scaff10 derivatives. n.d. = not determined. n.i. = not indicated.
Scaff10 MW Number of exp. 2 % DMSO 0.3 % DMSO Scaff10 Yield
Structure log P Disruption of the PPI IC50 [µM]
derivative [g/mol] in dupl. [µM] [µM] class [%]

[2] = Suppl. Tab. 3, ± SEM, '-' = no IC50, inactive, n.d. = not determined, read-out: HTRF assay IC50
[3] = DMEM + 10 % FCS, plasma or biological fluid, kinetic from dmso stock, 0.3 % DMSO final, read-out: Solubility 0.3 % DMSO
[4] = DMEM + 10 % FCS, plasma or biological fluid, kinetic from dmso stock, 2 % DMSO final, read-out: Solubility 2 % DMSO
[5] = Table 1, HTRF, '-' = no IC50, inactive (n.d. is used separately in S3 Table), read-out: IC50 ± SEM
[6] = 0.3 % DMSO final, read-out: Solubility 0.3 % DMSO
[7] = 2 % DMSO final, read-out: Solubility 2 % DMSO
[8] = IC50 ± SEM, Table 1, HTRF, '-' = no IC50, inactive (n.d. is used separately in S3 Table)
[9] = IC50 for inhibition of the AKAP-Lbc/DHPH-RhoA interaction, HTRF, text and figures, ± SEM, n = 3–15 in duplicate

T1 sequence (P61586 whole entry, the tested form may be a part): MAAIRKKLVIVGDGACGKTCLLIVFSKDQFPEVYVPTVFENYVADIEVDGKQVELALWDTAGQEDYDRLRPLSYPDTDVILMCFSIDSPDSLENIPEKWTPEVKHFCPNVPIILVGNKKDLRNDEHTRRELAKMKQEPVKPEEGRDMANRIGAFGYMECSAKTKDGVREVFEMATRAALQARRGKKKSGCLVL

Row | Compound | IC50 [1, 2] | solubility (Nephelometric solubility; [3]) | solubility (Nephelometric solubility; [4]) | IC50 [1, 5] | solubility (Nephelometric solubility; [7]) | also measured
1 | COc1ccc(-c2coc3c(C)c4oc(=O)c(CCC(=O)O)c(C)c4cc23)cc1 [Scaff10-50] | 26.8 ± 3.5 µM | > 150 µM | 70 µM | – | – | –
2 | COc1ccc(C(=O)COc2ccc3c(C)c(CCC(=O)NCCNC(=O)CCCCC4SCC5NC(=O)NC54)c(=O)oc3c2)cc1 (stereo not drawn) [Scaff10-9, N-[2-[3-[7-[2-(4-Methoxyphenyl)-2-oxo-ethoxy]-4-methyl-2-oxo-chromen-3-yl]propanoylamino]ethyl]-5-(2-oxo-1,3,3a,4,6,6a-hexahydrothieno[3,4-d]imidazol-4-yl)pentanamide] | > 200 µM | – | – | – | – | –
3 | COc1ccc(-c2coc3cc4oc(=O)c(CC(=O)O)c(C)c4cc23)cc1 [Scaff10-49] | – | > 150 µM | > 100 µM | 56.4 ± 4.5 µM | – | IC50 ([1]; HTRF, text and figures, ± SEM, n = 3–15 in duplicate, read-out: IC50 for inhibition of the AKAP-Lbc/DHPH-RhoA interaction): 56 ± 5 µM
4 | Cc1c(C)c2cc3c(-c4ccc(-c5ccccc5)cc4)coc3cc2oc1=O [Scaff10-46] | – | – | – | > 200 µM | 15 µM | inhibitory effect on the AKAP-Lbc/DHPH-RhoA interaction ([1]; HTRF): no inhibitory effect; solubility (Nephelometric solubility; [6]): > 150 µM
5 | Cc1c(CCC(=O)O)c(=O)oc2cc3occ(-c4ccncc4)c3cc12 [Scaff10-32] | – | – | – | > 200 µM | > 100 µM | inhibitory effect on the AKAP-Lbc/DHPH-RhoA interaction ([1]; HTRF): complete loss of activity; solubility (Nephelometric solubility; [6]): > 150 µM
6 | Cc1nc(-c2ccc(F)cc2)ccc1-c1coc2cc3oc(=O)c(C)c(C)c3cc12 [Scaff10-5, 3-[6-(4-Fluorophenyl)-2-methyl-3-pyridyl]-5,6-dimethyl-furo[3,2-g]chromen-7-one] | > 200 µM | > 150 µM | 65 µM | – | – | –
7 | CCOC(=O)CCc1c(C)c2ccc(OCC(=O)c3ccc(-c4ccc(F)cc4)nc3C)cc2oc1=O [Scaff10-10, Ethyl 3-[7-[2-[6-(4-fluorophenyl)-2-methyl-3-pyridyl]-2-oxo-ethoxy]-4-methyl-2-oxo-chromen-3-yl]propanoate] | > 200 µM | – | – | – | 30 µM | solubility (Nephelometric solubility; [6]): > 150 µM
8 | Cc1c(CCC(=O)O)c(=O)oc2cc(OCC(=O)c3ccc(N(C)C)cc3)ccc12 [Scaff10-35] | – | – | – | > 200 µM | > 100 µM | inhibitory effect on the AKAP-Lbc/DHPH-RhoA interaction ([1]; HTRF): complete loss of activity; solubility (Nephelometric solubility; [6]): > 150 µM
9 | COc1ccc2cc(-c3coc4cc5oc(=O)c(CCC(=O)O)c(C)c5cc34)ccc2c1 [Scaff10-44] | – | 40 µM | 15 µM | – | – | IC50 [1, 8]: 20.7 ± 2.5 µM
10 | COc1cccc(-c2ccc(C(=O)COc3ccc4c(C)c(CCC(=O)O)c(=O)oc4c3)cc2)c1 [Scaff10-63] | – | 75 µM | 30 µM | – | – | IC50 [1, 9]: 24 ± 8 µM; IC50 [1, 8]: 24.4 ± 8.4 µM
11 | Cc1c(CCC(=O)O)c(=O)oc2cc3occ(-c4ccccc4)c3cc12 [Scaff10-58] | – | > 150 µM | > 100 µM | 66.7 ± 7.5 µM | – | –
12 | Cc1nc(-c2ccc(F)cc2)ccc1C(=O)COc1ccc2c(C)c(C)c(=O)oc2c1 [Scaff10-4, 7-[2-[6-(4-Fluorophenyl)-2-methyl-3-pyridyl]-2-oxo-ethoxy]-3,4-dimethyl-chromen-2-one] | > 200 µM | > 150 µM | 40 µM | – | – | –
13 | COc1ccc(C(=O)COc2ccc3c(C)c(C)c(=O)oc3c2)cc1 [AE168, [2-(4-Methoxyphenyl)-2-oxo-ethoxy]-3,4-dimethyl-chromen-2-one] | > 200 µM | – | – | – | 75 µM | –
14 | COc1ccc2cc(-c3coc4cc5oc(=O)c(C)c(C)c5cc34)ccc2c1 [Scaff10-47] | – | – | – | > 200 µM | 15 µM | inhibitory effect on the AKAP-Lbc/DHPH-RhoA interaction ([1]; HTRF): no inhibitory effect; solubility (Nephelometric solubility; [6]): > 150 µM
15 | COc1ccc(-c2coc3cc4oc(=O)c(CCC(=O)NCC(=O)O)c(C)c4cc23)cc1 [Scaff10-61] | – | > 150 µM | – | – | – | IC50 [1, 8]: 64 ± 6 µM
16 | Cc1c(C)c2cc3c(-c4cccnc4)coc3cc2oc1=O [Scaff10-3, 5,6-Dimethyl-3-(3-pyridyl)furo[3,2-g]chromen-7-one] | > 200 µM | > 150 µM | 40 µM | – | – | –
17 | Cc1c(CCC(=O)O)c(=O)oc2cc3occ(-c4ccc(C(F)(F)F)cc4)c3cc12 [Scaff10-30] | – | – | > 100 µM | – | – | inhibitory effect on the AKAP-Lbc/DHPH-RhoA interaction ([1]; HTRF): reduced; IC50 [1, 8]: 47.8 ± 7.8 µM
18 | COc1cccc(-c2ccc(-c3coc4cc5oc(=O)c(CCC(=O)O)c(C)c5cc34)cc2)c1 [Scaff10-64] | – | > 150 µM | 70 µM | – | – | IC50 [1, 8]: 28.9 ± 9.3 µM
19 | COc1ccc(-c2coc3cc4oc(=O)c(CCC(=O)NO)c(C)c4cc23)cc1 [Scaff10-51] | – | – | – | > 200 µM | 20 µM | inhibitory effect on the AKAP-Lbc/DHPH-RhoA interaction ([1]; HTRF): almost complete loss of activity; solubility (Nephelometric solubility; [6]): 40 µM
20 | COc1ccc(C(=O)COc2ccc3ccc(=O)oc3c2)cc1 [AE167, 7-[2-(4-Methoxyphenyl)-2-oxo-ethoxy]chromen-2-one] | > 200 µM | – | 30 µM | – | – | –
21 | COc1ccc(C(=O)COc2ccc3c(C)c(CCC(=O)O)c(=O)oc3c2)cc1 [Scaff10-6, 3-[7-[2-(4-Methoxyphenyl)-2-oxo-ethoxy]-4-methyl-2-oxo-chromen-3-yl]propanoic acid] | – | > 150 µM | 100 µM | > 200 µM | – | –
22 | Cc1c(C)c2ccc(OCC(=O)c3cccnc3)cc2oc1=O [Scaff10-2, 3,4-Dimethyl-7-[2-oxo-2-(3-pyridyl)ethoxy]chromen-2-one] | > 200 µM | 75 µM | 90 µM | – | – | –
23 | COc1ccc(-c2coc3cc4oc(=O)c(CCC(=O)N(C)C)c(C)c4cc23)cc1 [Scaff10-26] | – | – | – | > 200 µM | 50 µM | inhibitory effect on the AKAP-Lbc/DHPH-RhoA interaction ([1]; HTRF): complete loss of the inhibitory effect; solubility (Nephelometric solubility; [6]): > 150 µM
24 | COc1ccc(-c2coc3cc4oc(=O)ccc4cc23)cc1 [Scaff10-1, 3-(4-Methoxyphenyl)furo[3,2-g]chromen-7-one] | > 200 µM | 40 µM | 45 µM | – | – | –
25 | Cc1c(CCC(=O)O)c(=O)oc2cc(OCC(=O)c3ccc(-c4ccccc4)cc3)ccc12 [Scaff10-40] | – | 10 µM | 15 µM | – | – | IC50 [1, 9]: 21 ± 3 µM; IC50 [1, 8]: 20.8 ± 2.6 µM
26 | Cc1c(CCC(=O)O)c(=O)oc2cc3occ(-c4ccc(-c5ccccc5)cc4)c3cc12 [Scaff10-41] | – | – | 50 µM | – | – | IC50 [1, 8]: 29.1 ± 2.6 µM

From paper PMC5786306, “An AKAP-Lbc-RhoA interaction inhibitor promotes the translocation of aquaporin-2 to the plasma membrane of renal collecting duct principal cells” (PLoS ONE, 2018)
